Columns and labels:
[1] = target: PIK3CD (Human) (UniProt O00329); assay: Assessment of PIK3CD Kinase Activity
[2] = target: PIK3CG (human) (UniProt P48736); assay: Assessment of PIK3CG Kinase Activity
[3] = target: PIK3CA (human) (UniProt P42336); assay: Assessment of PIK3CA Kinase Activity
[4] = target: PIK3CB (Human) (UniProt P42338); assay: Assessment of PIK3CB Kinase Activity
Chain of PIK3CB (Human) (P42338 whole entry, looked up): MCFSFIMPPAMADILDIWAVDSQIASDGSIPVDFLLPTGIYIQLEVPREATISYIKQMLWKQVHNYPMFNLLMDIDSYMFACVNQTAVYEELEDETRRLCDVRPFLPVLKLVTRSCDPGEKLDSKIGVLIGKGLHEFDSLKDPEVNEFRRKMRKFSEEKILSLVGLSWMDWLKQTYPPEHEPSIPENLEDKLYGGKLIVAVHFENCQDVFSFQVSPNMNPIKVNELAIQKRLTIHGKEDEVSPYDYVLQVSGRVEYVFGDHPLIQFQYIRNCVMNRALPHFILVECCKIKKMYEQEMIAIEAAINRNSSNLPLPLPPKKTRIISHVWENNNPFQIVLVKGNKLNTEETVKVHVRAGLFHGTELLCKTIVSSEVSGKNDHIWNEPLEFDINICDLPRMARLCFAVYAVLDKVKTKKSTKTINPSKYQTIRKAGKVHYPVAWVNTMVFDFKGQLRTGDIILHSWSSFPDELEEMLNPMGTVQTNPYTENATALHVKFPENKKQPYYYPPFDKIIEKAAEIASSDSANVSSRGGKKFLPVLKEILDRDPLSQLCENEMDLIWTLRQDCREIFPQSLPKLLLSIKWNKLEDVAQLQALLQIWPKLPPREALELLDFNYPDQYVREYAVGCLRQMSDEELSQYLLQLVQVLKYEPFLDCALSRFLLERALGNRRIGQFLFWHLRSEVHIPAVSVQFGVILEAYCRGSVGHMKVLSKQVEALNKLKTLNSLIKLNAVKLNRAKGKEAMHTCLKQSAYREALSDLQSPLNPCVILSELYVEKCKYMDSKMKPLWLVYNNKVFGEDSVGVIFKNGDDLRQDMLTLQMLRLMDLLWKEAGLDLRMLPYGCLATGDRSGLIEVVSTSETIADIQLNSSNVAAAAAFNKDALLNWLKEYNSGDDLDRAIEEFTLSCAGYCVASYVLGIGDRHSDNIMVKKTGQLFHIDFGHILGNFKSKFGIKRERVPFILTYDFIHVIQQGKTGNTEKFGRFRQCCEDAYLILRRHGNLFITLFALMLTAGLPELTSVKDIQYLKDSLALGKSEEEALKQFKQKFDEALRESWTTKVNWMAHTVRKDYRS

Chain of PIK3CG (human) (P48736 whole entry, looked up): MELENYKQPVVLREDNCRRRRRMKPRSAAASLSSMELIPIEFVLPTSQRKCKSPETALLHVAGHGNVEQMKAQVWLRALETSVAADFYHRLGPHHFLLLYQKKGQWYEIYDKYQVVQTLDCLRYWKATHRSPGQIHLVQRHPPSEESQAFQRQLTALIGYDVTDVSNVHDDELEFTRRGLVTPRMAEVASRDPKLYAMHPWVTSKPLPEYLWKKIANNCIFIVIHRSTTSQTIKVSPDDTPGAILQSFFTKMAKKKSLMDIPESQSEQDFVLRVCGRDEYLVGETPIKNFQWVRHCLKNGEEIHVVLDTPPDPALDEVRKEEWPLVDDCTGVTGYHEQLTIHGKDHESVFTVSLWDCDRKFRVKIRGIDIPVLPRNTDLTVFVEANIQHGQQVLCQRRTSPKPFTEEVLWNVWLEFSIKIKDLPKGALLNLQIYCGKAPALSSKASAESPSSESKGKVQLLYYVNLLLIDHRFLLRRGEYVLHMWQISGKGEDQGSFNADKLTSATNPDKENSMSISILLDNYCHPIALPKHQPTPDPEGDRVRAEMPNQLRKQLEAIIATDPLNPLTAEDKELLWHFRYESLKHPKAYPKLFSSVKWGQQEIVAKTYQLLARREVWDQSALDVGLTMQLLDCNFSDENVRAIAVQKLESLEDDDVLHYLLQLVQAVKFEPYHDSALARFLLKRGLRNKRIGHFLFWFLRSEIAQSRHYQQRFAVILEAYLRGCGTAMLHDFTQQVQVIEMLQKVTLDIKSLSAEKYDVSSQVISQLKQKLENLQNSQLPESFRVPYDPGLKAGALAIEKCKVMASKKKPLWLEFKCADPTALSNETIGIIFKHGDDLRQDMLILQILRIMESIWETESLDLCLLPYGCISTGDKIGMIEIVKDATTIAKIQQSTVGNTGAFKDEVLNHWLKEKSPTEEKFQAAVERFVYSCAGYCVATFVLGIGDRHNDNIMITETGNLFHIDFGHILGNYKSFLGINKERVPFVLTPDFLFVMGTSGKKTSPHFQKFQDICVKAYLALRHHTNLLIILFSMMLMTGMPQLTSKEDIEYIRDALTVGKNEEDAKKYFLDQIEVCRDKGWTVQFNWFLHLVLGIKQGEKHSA
Chain of PIK3CA (human) (P42336 whole entry, looked up): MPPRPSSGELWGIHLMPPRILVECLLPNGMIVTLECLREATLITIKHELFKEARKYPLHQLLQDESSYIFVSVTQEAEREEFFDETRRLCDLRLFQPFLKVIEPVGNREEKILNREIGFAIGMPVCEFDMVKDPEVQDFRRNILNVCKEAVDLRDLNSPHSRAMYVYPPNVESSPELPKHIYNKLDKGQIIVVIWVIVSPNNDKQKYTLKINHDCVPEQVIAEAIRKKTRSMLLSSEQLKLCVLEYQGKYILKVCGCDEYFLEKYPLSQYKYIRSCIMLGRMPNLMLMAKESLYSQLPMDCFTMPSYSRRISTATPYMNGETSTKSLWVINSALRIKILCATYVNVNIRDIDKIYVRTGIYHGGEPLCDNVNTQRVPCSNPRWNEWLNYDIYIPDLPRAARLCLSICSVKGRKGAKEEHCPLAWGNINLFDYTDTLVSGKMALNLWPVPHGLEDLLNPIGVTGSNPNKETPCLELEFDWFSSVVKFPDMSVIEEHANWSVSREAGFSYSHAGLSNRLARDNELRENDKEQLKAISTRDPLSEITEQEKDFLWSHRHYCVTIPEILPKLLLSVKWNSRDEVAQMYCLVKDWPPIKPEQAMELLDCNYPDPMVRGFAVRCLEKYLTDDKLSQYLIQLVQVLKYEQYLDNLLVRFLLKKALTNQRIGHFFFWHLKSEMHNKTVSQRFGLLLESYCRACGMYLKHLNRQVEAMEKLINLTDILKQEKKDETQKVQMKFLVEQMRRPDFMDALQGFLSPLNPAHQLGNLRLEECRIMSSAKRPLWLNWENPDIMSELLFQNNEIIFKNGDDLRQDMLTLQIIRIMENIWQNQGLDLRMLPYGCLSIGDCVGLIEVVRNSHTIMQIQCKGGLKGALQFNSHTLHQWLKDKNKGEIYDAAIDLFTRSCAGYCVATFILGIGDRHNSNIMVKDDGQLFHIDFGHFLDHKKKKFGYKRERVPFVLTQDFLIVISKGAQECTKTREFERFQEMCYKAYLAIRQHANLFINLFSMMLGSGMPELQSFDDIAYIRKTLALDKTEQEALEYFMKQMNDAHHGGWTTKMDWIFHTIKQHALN
Chain of PIK3CD (Human) (O00329 whole entry, looked up): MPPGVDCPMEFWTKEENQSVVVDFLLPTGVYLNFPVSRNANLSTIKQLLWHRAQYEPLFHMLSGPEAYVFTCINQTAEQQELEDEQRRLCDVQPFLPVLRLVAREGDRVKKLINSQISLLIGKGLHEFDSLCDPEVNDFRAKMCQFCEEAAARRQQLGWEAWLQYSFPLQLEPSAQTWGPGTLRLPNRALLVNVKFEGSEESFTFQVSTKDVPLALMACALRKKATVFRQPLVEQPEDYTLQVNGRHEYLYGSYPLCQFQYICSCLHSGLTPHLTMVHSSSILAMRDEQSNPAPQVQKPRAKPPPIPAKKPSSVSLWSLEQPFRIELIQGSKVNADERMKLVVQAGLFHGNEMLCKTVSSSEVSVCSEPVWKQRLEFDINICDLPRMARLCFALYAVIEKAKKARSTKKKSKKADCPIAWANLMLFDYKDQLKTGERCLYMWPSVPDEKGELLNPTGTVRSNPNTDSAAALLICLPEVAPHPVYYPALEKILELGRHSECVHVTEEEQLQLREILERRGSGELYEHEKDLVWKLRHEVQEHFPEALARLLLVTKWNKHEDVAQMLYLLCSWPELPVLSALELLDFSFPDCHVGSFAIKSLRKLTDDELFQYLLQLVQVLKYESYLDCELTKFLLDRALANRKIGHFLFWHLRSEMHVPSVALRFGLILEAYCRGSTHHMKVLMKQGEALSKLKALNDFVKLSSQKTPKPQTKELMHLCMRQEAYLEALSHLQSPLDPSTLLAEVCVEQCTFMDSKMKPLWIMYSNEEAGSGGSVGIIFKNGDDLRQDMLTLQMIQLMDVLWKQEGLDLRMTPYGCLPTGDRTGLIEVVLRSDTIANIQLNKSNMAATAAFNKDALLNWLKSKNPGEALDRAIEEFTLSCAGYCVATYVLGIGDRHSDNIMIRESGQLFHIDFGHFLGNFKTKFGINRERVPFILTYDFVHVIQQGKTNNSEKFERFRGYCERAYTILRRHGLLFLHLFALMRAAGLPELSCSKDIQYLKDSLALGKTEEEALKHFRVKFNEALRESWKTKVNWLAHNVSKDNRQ

Row | Compound | IC50 [1] | IC50 [2] | IC50 [3] | IC50 [4]
1 | C[C@H](Nc1nc(N)ncc1C#N)c1cc2cccc(-c3ccnc(O)c3)c2c(=O)n1-c1ccccc1 | < 100 nM | < 100 nM | > 10000 nM | > 10000 nM
2 | COc1cc(-c2cccc3cc([C@H](C)Nc4nc(N)ncc4C(=O)N4CC(F)(F)C4)n(-c4ccccc4)c(=O)c23)ccn1 | 100 to 1000 nM | 100 to 1000 nM | > 10000 nM | > 10000 nM
3 | C[C@H](Nc1nc(N)ncc1[N+](=O)[O-])c1cc2cccc(Cl)c2c(=O)n1-c1ccccc1 | < 100 nM | < 100 nM | > 10000 nM | 100 to 1000 nM
4 | C[C@H](Nc1nc(N)ncc1C(=O)N1CCC1)c1cc2cccc(-c3cnn(C)c3)c2c(=O)n1-c1ccccc1 | 100 to 1000 nM | < 100 nM | > 10000 nM | > 10000 nM
5 | COc1cc(-c2cccc3cc([C@H](C)Nc4nc(N)ncc4-c4ccc(O)c(F)c4)n(-c4ccccc4)c(=O)c23)ccn1 | < 100 nM | < 100 nM | > 10000 nM | > 10000 nM
6 | COc1nc(-c2cnc(N)nc2N[C@@H](C)c2cc3cccc(Cl)c3c(=O)n2-c2ccccc2)cs1 | < 100 nM | < 100 nM | 100 to 1000 nM | < 100 nM
7 | C[C@H](Nc1nc(N)ncc1C#N)c1cc2cccc(Cl)c2c(=O)n1C1CCCC1 | < 100 nM | < 100 nM | > 10000 nM | 100 to 1000 nM
8 | C[C@H](Nc1nc(N)ncc1NS(C)(=O)=O)c1cc2cccc(Cl)c2c(=O)n1-c1ccccc1 | > 10000 nM | > 10000 nM | > 10000 nM | > 10000 nM
9 | Cc1ccc(-c2cccc3cc([C@H](C)Nc4nc(N)ncc4C#N)n(-c4ccccc4)c(=O)c23)cc1 | < 100 nM | < 100 nM | 100 to 1000 nM | 100 to 1000 nM
10 | C[C@H](Nc1nc(N)ncc1-c1cccnc1)c1cc2cccc(Cl)c2c(=O)n1-c1ccccc1 | 100 to 1000 nM | < 100 nM | > 10000 nM | > 10000 nM
11 | COc1cc(-c2cccc3cc([C@H](C)Nc4nc(N)ncc4-c4ccccc4)n(-c4ccccc4)c(=O)c23)ccn1 | 100 to 1000 nM | < 100 nM | > 10000 nM | > 10000 nM
12 | COc1cc(-c2cccc3cc([C@H](C)Nc4nc(N)ncc4C#N)n(C4CC4)c(=O)c23)ccn1 | < 100 nM | < 100 nM | 100 to 1000 nM | < 100 nM
13 | COc1cncc(-c2cccc3cc([C@H](C)Nc4nc(N)ncc4C#N)n(-c4ccccc4)c(=O)c23)n1 | < 100 nM | 100 to 1000 nM | > 10000 nM | > 10000 nM
14 | COc1cc(-c2cccc3cc([C@H](C)Nc4nc(N)ncc4C(=O)O)n(-c4ccccc4)c(=O)c23)ccn1 | > 10000 nM | > 10000 nM | > 10000 nM | > 10000 nM
15 | C[C@H](Nc1nc(N)ncc1C#N)c1cc2cccc(-c3cnc4[nH]ccc4c3)c2c(=O)n1-c1cccc(F)c1 | < 100 nM | < 100 nM | 100 to 1000 nM | 100 to 1000 nM
16 | COc1ncc(-c2cccc3cc([C@H](C)Nc4nc(N)ncc4C#N)n(-c4cccc(F)c4)c(=O)c23)cn1 | < 100 nM | < 100 nM | > 10000 nM | > 10000 nM
17 | COc1cncc(-c2cccc3cc([C@H](C)Nc4nc(N)ncc4C#N)n(C4CC4)c(=O)c23)c1 | < 100 nM | < 100 nM | 100 to 1000 nM | 100 to 1000 nM
18 | COc1ncc(-c2cccc3nc([C@H](C)Nc4nc(N)ncc4C#N)n(-c4ccccc4)c(=O)c23)cn1 | < 100 nM | < 100 nM | > 10000 nM | > 10000 nM
19 | C[C@H](Nc1nc(N)ncc1C#N)c1cc2cccc(Oc3ccccc3)c2c(=O)n1-c1ccccc1 | < 100 nM | < 100 nM | > 10000 nM | > 10000 nM
20 | COc1cncc(-c2cccc3cc([C@H](C)Nc4nc(N)ncc4C#N)n(-c4ccccc4)c(=O)c23)c1 | < 100 nM | < 100 nM | 100 to 1000 nM | 100 to 1000 nM

Reference: the Kinase Knowledgebase extract (Sharma et al. 2016)
